Structures can show the parent of a compound that is named as a salt.
Assays:
ALPK1 = ALPK1 (Homo sapiens (Human), UniProt Q96QP1); assay: ALPK1 in vitro kinase assay (HTRF of TIFA phosphorylation); type: biochemical; settings: ALPK1 2 nM activated by ADP-Heptose, TIFA substrate
Method: ALPK1 in vitro Kinase Assay
ALPK1 kinase activity was measured in an in vitro assay using ADP-Heptose as the ALPK1 ligand and activator of its kinase activity and TIFA protein as the ALPK1 phosphorylation substrate. Since phosphorylated TIFA proteins oligomerize, Homogeneous Time-Resolved Fluorescence (HTRF) was used to measure protein: protein interaction between HA-tagged TIFA proteins as an indicator of TIFA phosphorylation.
In brief, dose-response studies were performed in 384-well assay plates. Each well contained 0.1 mg TIFA, ALPK1 (2 nM final concentration in reaction mixture) and kinase buffer (100 mM of HEPES pH 7.4, 4 mM DTT, 40 mM MgCl2, 20 mM of β-Glycerol phosphate disodium salt, 0.4 mM of Na3VO4, 0.16 mg/mL). Titrations of the test compounds were prepared in dimethylsulphoxide (DMSO). The reaction was initiated by addition of ATP and ADP-Heptose.
For HTRF, samples were incubated with a Tb cryptate-labeled anti-HA antibody for capturing HA-tagged proteins according to the manufacturer's instructions (PerkinElmer™, CisBio™) and the fluorescence signal was quantified (Tecan Infinite F NANO+). HTRF signals were calculated as the HTRF ratio (ratio of fluorescence measured at 665 nm and 620 nm)×104 (thereby using the signal at 620 nm as an internal standard).
IC50 values were determined using 3- or 4-parameter logistic equation using GraphPad Prism version 6.00. The reference compound, A027, was used as a positive control for each plate.

[1] = test system: ALPK1-dependent NFκB reporter gene activation in HEK293 cells stably expressing an NF-kB reporter (G9 cells); assay: NFκB gene reporter alkaline phosphatase assay; type: cell-based; settings: Homo sapiens, read-out: NFKB assay IC50
Method: NFκB Gene Reporter Alkaline Phosphatase Assay
An alkaline phosphatase reporter assay system was used to measure inhibition of ALPK1-dependent NFκB reporter gene activation. Briefly, HEK293 cells stably expressing an NF-kB reporter (referred to herein as “G9 cells”) were maintained in Dulbecco's Modified Eagle Medium (DMEM) supplemented with 10% fetal bovine serum (FBS, Hyclone™) containing antibiotics (pen/strep, G418) […]. For the assay, cells were seeded into 96-well plates at a density of 10,000 cells/well in Freestyle™ 293 Expression Medium (ThermoFisher) and allowed to attach overnight. […] NFkB gene activation was detected using the chromogenic substrate, para-nitrophenyl phosphate (pNPP) according to the manufacturer's protocols (pNPP Phosphatase Assay, Beyotime Biotechnology).

[2] = test system: lupus nephritis in MRL/MpJ-Faslpr/J mice; assay: MRL/MpJ-Faslpr/J mouse lupus nephritis model; type: in vivo
From the text: After 8 weeks of treatment, the animals were sacrificed, and their urine was collected for proteinuria assessment using Urine Protein Test Strips (FIG. 9). The right kidneys were harvested and stained by hematoxylin and eosin (H&E) for pathological evaluation (FIG. 10A-G).

[3] = test system: ALPK1-dependent gene expression in kidney; assay: Inhibition of ALPK1 in kidney: ALPK1 agonist-induced gene expression in rats; type: in vivo, Sprague-Dawley (SD) rats; settings: SD rats, oral 2, 5, 10, 20 mpk 21 h before ip ALPK1 agonist, kidneys 3 h after agonist; relative to vehicle group
[4] = test system: adenine diet induced rat CKD model
From the text: We started compound dosing from day 14 after adenine diet inception for 6 weeks. During the study, we collected plasma and measure the Blood Urea Nitrogen (BUN) (FIG. 6A) and creatine (FIG. 6B) level weekly.

[5] = test system: UUO induced kidney fibrosis; settings: rat UUO
From the text: Briefly, we ligated the left ureter of rat and then start the daily oral treatment right after the surgery for 7 days, and then measure the kidney fibrosis by hydroxyproline content measurement and Sirus red staining. Because of the amount of renal inflammation, we used hydroxyproline (OH-P) content indexed to total protein for interpretation of UUO-induced fibrosis and compound efficacy (FIG. 3A) For completeness, we also analyzed the OH-P content indexed to tissue mass (FIG. 3B).

[6] = 10 mg/kg oral daily, 8 weeks, kidney H&E
[7] = daily oral treatment for 7 days, C008 at 7 mpk & 20 mpk

Sequence of ALPK1 (Q96QP1 whole entry): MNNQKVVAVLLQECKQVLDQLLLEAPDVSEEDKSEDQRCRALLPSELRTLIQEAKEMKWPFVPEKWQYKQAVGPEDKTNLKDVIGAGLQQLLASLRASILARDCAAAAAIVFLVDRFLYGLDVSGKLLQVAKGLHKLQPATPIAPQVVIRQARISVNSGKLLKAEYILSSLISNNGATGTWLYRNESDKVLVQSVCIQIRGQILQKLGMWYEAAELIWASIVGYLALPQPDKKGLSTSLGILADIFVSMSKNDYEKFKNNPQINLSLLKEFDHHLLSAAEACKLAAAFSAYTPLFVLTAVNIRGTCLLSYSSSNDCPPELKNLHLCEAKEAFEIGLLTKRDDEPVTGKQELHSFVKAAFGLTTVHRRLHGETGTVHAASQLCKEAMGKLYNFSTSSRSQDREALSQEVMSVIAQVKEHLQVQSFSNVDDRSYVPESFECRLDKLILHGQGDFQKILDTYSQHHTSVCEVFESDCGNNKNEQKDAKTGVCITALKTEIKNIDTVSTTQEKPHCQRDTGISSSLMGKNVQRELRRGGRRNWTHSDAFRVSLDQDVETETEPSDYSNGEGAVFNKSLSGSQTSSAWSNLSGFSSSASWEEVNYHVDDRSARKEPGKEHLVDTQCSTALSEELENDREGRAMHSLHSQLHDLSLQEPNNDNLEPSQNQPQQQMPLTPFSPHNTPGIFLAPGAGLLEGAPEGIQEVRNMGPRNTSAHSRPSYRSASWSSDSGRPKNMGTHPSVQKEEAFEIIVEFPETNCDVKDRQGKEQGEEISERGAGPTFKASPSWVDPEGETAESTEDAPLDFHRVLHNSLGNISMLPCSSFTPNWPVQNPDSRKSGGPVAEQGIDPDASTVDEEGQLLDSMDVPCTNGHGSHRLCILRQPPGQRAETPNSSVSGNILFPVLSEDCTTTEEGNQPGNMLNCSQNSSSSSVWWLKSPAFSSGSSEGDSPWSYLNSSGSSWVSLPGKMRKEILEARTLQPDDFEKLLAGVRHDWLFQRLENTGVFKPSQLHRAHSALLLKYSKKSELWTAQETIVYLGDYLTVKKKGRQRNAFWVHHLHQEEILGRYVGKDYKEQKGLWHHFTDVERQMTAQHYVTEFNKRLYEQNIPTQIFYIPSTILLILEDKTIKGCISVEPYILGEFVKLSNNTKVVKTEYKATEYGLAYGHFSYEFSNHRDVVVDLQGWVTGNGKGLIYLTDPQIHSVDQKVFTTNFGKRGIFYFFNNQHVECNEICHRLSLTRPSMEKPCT

Work on `C#C[C@](C)(c1ccc(Cl)cc1)c1nc(NC(=O)c2c(F)cc(N3CCNCC3)cc2F)sc1Cl` (stereo in doubt) [Example C050, N-(5-chloro-4-(2-(4-chlorophenyl)but-3-yn-2-yl)thiazol-2-yl)-2,6-difluoro-4-(piperazin-1-yl)benzamide] yielded an IC50 (ALPK1) of 923 nM.
`COc1ccc(C(C)(C)c2csc(NC(=O)c3ccc(N4CCC(O)C4)cc3)n2)cc1` (centres unmarked) [Example B009, 4-(3-hydroxypyrrolidin-1-yl)-N-(4-(2-(4-methoxyphenyl)propan-2-yl)thiazol-2-yl)benzamide] gave an IC50 (ALPK1) of 95 nM.
For `COc1ccc(C(C)(C)c2csc(NC(=O)NCc3cc(F)c(N4CCNCC4)cc3F)n2)cc1` [Example A231, 1-(2,5-difluoro-4-(piperazin-1-yl)benzyl)-3-(4-(2-(4-methoxyphenyl)propan-2-yl)thiazol-2-yl)urea hydrochloride], the IC50 [1] was 3360 nM.
`C#C[C@](C)(c1ccc(Cl)cc1)c1csc(NC(=O)c2c(F)cc(N3CCN(C)CC3)cc2F)n1` (stereo in doubt) [Example C009, N-(4-(2-(4-chlorophenyl)but-3-yn-2-yl)thiazol-2-yl)-2,6-difluoro-4-(4-methylpiperazin-1-yl)benzamide] showed an IC50 (ALPK1) of 7 nM.
Work on `C#C[C@@](C)(c1ccc(F)cc1)c1csc(NC(=O)c2ccc(N3CCNCC3CO)cc2)n1` (stereo in doubt) [Example B070, N-[4-[1-(4-fluorophenyl)-1-methyl-prop-2-ynyl]thiazol-2-yl]-4-[2-(hydroxymethyl)piperazin-1-yl]benzamide] yielded an IC50 (ALPK1) of 169 nM.
In the case of `COc1ccc(C(C)(C)c2csc(NC(=O)c3ccc(N4CCNCC4C)cc3)n2)cc1` (centres unmarked) [Example B014], the IC50 (ALPK1) is reported as 300 nM.
`COc1ccc(C(C)(C)c2csc(NC(=O)NCc3cc(F)c(C4CCNCC4)c(F)c3)n2)cc1` [Example A151, 1-(3,5-difluoro-4-(piperidin-4-yl)benzyl)-3-(4-(2-(4-methoxyphenyl)propan-2-yl)thiazol-2-yl)urea hydrochloride] showed an IC50 [1] of 950 nM.
For `C#C[C@@](C)(c1ccc(Cl)cc1)c1csc(NC(=O)c2c(F)cc(N3CCNCC3)cc2F)n1` [Example C008, (S)-N-(4-(2-(4-chlorophenyl)but-3-yn-2-yl)thiazol-2-yl)-2,6-difluoro-4-(piperazin-1-yl)benzamide], the proteinuria scores ([2]; 10 mg/kg oral daily, 8 weeks, compared to vehicle disease group) was “significant reduction”, the “pathological score: crescent” value [2, 6] was “significantly lower” and the “pathological score: glomerulus diameter” value [2, 6] was “significantly lower”. The “pathological score: interstitial inflammation” value [2, 6] was “significantly lower”, the “pathological score: protein cast” value [2, 6] was “significantly lower” and the “mRNA expression of Ccl2, Ccl4, Ccl5, Ccr1 and IL-6 in kidney” value ([2]; left kidneys, qPCR, after 8 weeks, relative to vehicle group) was “significant decreases”. The “mRNA expression for CCL-2, CCL-7, CXCL-1, CXCL-10, IL-1β and IL-6 in kidney” value [3] was “significant decreases”, the “adenine-induced increases in renal cortical CVF” value ([4]; rat adenine diet, end of study, C008 at 7 and 20 mpk) was “attenuated” and the “adenine-induced increases in plasma creatinine” value ([4]; rat adenine diet, ALK5i: days 35-56, C008: days 35 (20 mpk), 49 & 56 (7&20 mpk)) was “attenuated”. For the same compound, the “adenine-induced increases in plasma BUN” value ([4]; rat adenine diet, ALK5i: days 35-56, C008: days 42 (20 mpk), 49 (7&20 mpk), 56 (20 mpk)) was “attenuated”, the “adenine diet induced kidney dysfunction and kidney fibrosis” value ([4]; rat, C008 7, 20 mg/kg, dosing from day 14 for 6 weeks) was “significantly inhibit” and the “UUO induced kidney fibrosis” value ([5]; C008 2, 7, 20 mg/kg) was “dose dependently suppress”. For the same compound, the “UUO-induced increases in renal cortical CVF (Collagen Volume Fraction, Sirus Red)” value [5, 7] was “attenuated”, the “UUO-induced increases in renal cortical OH-P (hydroxyproline)” value [5, 7] was “attenuated” and the “kidney expression of genes involved in fibrosis and inflammation” value ([5]; separate study, C008 5, 10, 20 mg/kg) was “inhibited”.
With `COc1ccc(C(C)(C)c2csc(NC(=O)N3CC(c4ccc(N5CCNCC5)cc4)C3)n2)cc1` [Example A233, N-(4-(2-(4-methoxyphenyl)propan-2-yl)thiazol-2-yl)-3-(4-(piperazin-1-yl)phenyl)azetidine-1-carboxamide] the IC50 [1] was 330 nM.

— patent US20250381196A1 (SHANGHAI YAO YUAN BIOTECHNOLOGY CO., LTD., priority 2022, published 2025)
